Results on 79 compounds are retold here after ChEMBL document CHEMBL2321805, “N-methyldihydroquinazolinone derivatives of Retro-2 with enhanced efficacy against Shiga toxin” (J Med Chem, 2013).

Calls of active or inactive are those of the source. The calls are words filed in the database; no cut-off is given here.

The subject of one test is HeLa. The test is described as follows: Cytoprotective activity against shiga toxin-induced cytotoxicity in human HeLa cells at 30 uM incubated for 4 hrs prior to shiga toxin addition measured after 20 hrs by liquid scintillation counting analysis. The class given is functional, cell-based.
For the compound `Cc1ccc(C2Nc3ccc(F)cc3C(=O)N2c2ccccc2)s1` (racemic), the response was half-maximal at 10.6 µM (EC50).

For `O=C1c2ccccc2NC(c2ccc(Br)s2)N1c1ccccc1` (racemic), the concentration for a half-maximal effect (EC50) (commonly the concentration that produces a half-maximal response) came out at 13.7 µM.

`O=C1c2ccccc2NC(c2ccc(-c3ccccn3)s2)N1c1ccccc1` (racemic) yielded a concentration for a half-maximal effect (EC50) of 12 µM.

In the case of `Cc1ccc(C2N(C)c3ccccc3C(=O)N2c2ccccc2Cl)s1` (racemic), the EC50 amounted to 8.2 µM.

In turn, `Cc1ccc(C2Nc3ccccc3C(=O)N2c2ccccc2Cl)s1` (racemic) registered an EC50 of 14.8 µM.

A further test concerns HeLa. Description: Cytoprotective activity against shiga toxin-induced cytotoxicity in human HeLa cells at 30 uM incubated for 4 hrs prior to shiga toxin addition measured after 20 hrs by liquid scintillation counting analysis relative to Retro-2. The class given is functional.
On to `Cc1ccc(C2Nc3ccccc3C(=O)N2[C@H]2C[C@@H]3CC[C@H]2C3)s1` (mixture of isomers), for which the Activity came out at 0%.

`Cn1cc(C2Nc3ccccc3C(=O)N2c2ccccc2)c2ccccc21` (racemic) returned an Activity of 0%.

Take `Cc1ccc(C2N(C)c3ccccc3C(=O)N2c2ccccc2[N+](=O)[O-])s1` (racemic): the Activity is given as 33%.

Compound `CN1c2ccccc2C(=O)N(c2ccccc2)C1c1ccc(C=O)s1` (racemic) showed an Activity of 0%.

The compound `CN1c2ccccc2C(=O)N(c2ccccc2)C1c1ccc(CO)s1` (racemic) gave an Activity of 0%.

In turn, `Cc1ccc(C2Nc3ccc(F)cc3C(=O)N2c2ccccc2)s1` (racemic) registered an Activity of 167.2%.

Consider `Cc1ccc(C2Nc3cc(F)ccc3C(=O)N2c2ccccc2)s1` (racemic), for which the Activity is reported as 0%.

`Cc1ccc(C2N(c3ccccc3)C(=O)c3ccccc3N2C(=O)c2ccccc2)s1` (racemic) yielded an Activity of 0%.

Compound `Cc1ccc(C2N(Cc3ccccc3)c3ccccc3C(=O)N2c2ccccc2)s1` (racemic) returned an Activity of 1%.

As to `CCN1c2ccccc2C(=O)N(c2ccccc2)C1c1ccc(C)s1` (racemic), the Activity amounted to 2.9%.

Consider `CCCN1c2ccccc2C(=O)N(c2ccccc2)C1c1ccc(C)s1` (racemic), for which the Activity was found to be 0%.

On to `CCCCN1c2ccccc2C(=O)N(c2ccccc2)C1c1ccc(C)s1` (racemic), for which the Activity is 0%.

Compound `O=C1c2ccccc2NC(c2ccccc2)N1c1ccccc1` (racemic) registered an Activity of 0%.

With `COc1cccc(C2Nc3ccccc3C(=O)N2c2ccccc2)c1` (racemic), the Activity was determined as 0%.

`COc1ccc(C2Nc3ccccc3C(=O)N2c2ccccc2)cc1` (racemic) showed an Activity of 10%.

Consider `CN(C)c1ccc(C2Nc3ccccc3C(=O)N2c2ccccc2)cc1` (racemic), for which the Activity was determined as 48%.

`O=C1c2ccccc2NC(c2cccnc2)N1c1ccccc1` (racemic) showed an Activity of 0%.

With `O=C1c2ccccc2NC(c2cccs2)N1c1ccccc1` (racemic), the Activity was 0%.

In turn, `O=C1c2ccccc2NC(c2ccc(Br)s2)N1c1ccccc1` (racemic) gave an Activity of 146%.

The compound `O=C1c2ccccc2NC(c2ccc(-c3ccccn3)s2)N1c1ccccc1` (racemic) gave an Activity of 468%.

In turn, `Cc1ccc(C2Nc3ccccc3C(=O)N2C23CC4CC(CC(O)(C4)C2)C3)s1` (racemic) displayed an Activity of 0%.

`Cc1ccc(C2Nc3ccccc3C(=O)N2Cc2ccccc2)s1` (racemic) came in with an Activity of 0%.

As for `Cc1ccc(C2Nc3ccccc3C(=O)N2C2CCCCC2)s1` (racemic), the Activity worked out at 0%.

`CCCCN1C(=O)c2ccccc2NC1c1ccc(C)s1` (racemic): the Activity came out at 0%.

`CCC(C)N1C(=O)c2ccccc2NC1c1ccc(C)s1` (racemic) returned an Activity of 0%.

For the compound `Cc1ccc(C2Nc3ccccc3C(=O)N2C(C)C)s1` (racemic), the Activity is given as 0%.

`COc1ccc(CCN2C(=O)c3ccccc3NC2c2ccc(C)s2)cc1` (racemic) showed an Activity of 0%.

In the case of `Cc1ccc(C2Nc3ccccc3C(=O)N2c2ccc(-c3ccccc3)cc2)s1` (racemic), the Activity is 0%.

Turning to `Cc1ccc(C2Nc3ccccc3C(=O)N2c2ccc(C#N)cc2)s1` (racemic), the Activity was determined as 0%.

In turn, `Cc1ccc(C2Nc3ccccc3C(=O)N2c2cccc(C(F)(F)F)c2)s1` (racemic) came in with an Activity of 0%.

In the case of `Cc1ccc(C2Nc3ccccc3C(=O)N2c2cccnc2)s1` (racemic), the Activity is listed as 0%.

`CN1c2ccccc2C(=O)N(c2ccccc2)C1c1ccc(CNCc2ccccc2)s1` (racemic) returned an Activity of 6.2%.

With `CN1c2ccccc2C(=O)N(c2ccccc2)C1c1ccc(CCl)s1` (racemic), the Activity is 0%.

The compound `CN1c2ccccc2C(=O)N(c2ccccc2)C1c1ccc(Sc2ccccc2)s1` (racemic) displayed an Activity of 75.5%.

Turning to `CN1c2ccccc2C(=O)N(c2ccccc2)C1c1ccc(C#N)s1` (racemic), the Activity is reported as 0%.

`COc1ccc(-c2ccc(C3N(C)c4ccccc4C(=O)N3c3ccccc3)s2)cc1OC` (racemic) displayed an Activity of 1.5%.

`CN1c2ccccc2C(=O)N(c2ccccc2)C1c1ccc(-c2cccc([N+](=O)[O-])c2)s1` (racemic) registered an Activity of 0%.

In turn, `COC(=O)c1ccc(-c2ccc(C3N(C)c4ccccc4C(=O)N3c3ccccc3)s2)cc1` (racemic) gave an Activity of 2.9%.

`CC(=O)c1ccc(-c2ccc(C3N(C)c4ccccc4C(=O)N3c3ccccc3)s2)cc1` (racemic) displayed an Activity of 0.7%.

For `CN1c2ccccc2C(=O)N(c2ccccc2)C1c1ccc(-c2ccc(Oc3ccccc3)cc2)s1` (racemic), the Activity was 15.7%.

Take `COc1cc(-c2ccc(C3N(C)c4ccccc4C(=O)N3c3ccccc3)s2)cc(OC)c1OC` (racemic): the Activity turned out to be 0%.

`COc1ccc(-c2ccc(C3N(C)c4ccccc4C(=O)N3c3ccccc3)s2)cc1` (racemic) showed an Activity of 26.2%.

In the case of `Cc1ccc(-c2ccc(C3N(C)c4ccccc4C(=O)N3c3ccccc3)s2)cc1[N+](=O)[O-]` (racemic), the Activity was determined as 0%.

`CN1c2ccccc2C(=O)N(c2ccccc2)C1c1ccc(-c2ccc(C#N)cc2)s1` (racemic) returned an Activity of 0%.

`CN1c2ccccc2C(=O)N(c2ccccc2)C1c1ccc(-c2csc3ccccc23)s1` (racemic) showed an Activity of 0%.

On to `CN1c2ccccc2C(=O)N(c2ccccc2)C1c1ccc(-c2ccc3ccccc3c2)s1` (racemic), for which the Activity was 9.7%.

`CN1c2ccccc2C(=O)N(c2ccccc2)C1c1ccc(-c2cccc3ccccc23)s1` (racemic): the Activity is on record as 0%.

Take `CN1c2ccccc2C(=O)N(c2ccccc2)C1c1ccc(-c2ccc3[nH]ccc3c2)s1` (racemic): the Activity is listed as 0%.

On to `CN1c2ccccc2C(=O)N(c2ccccc2)C1c1ccc(-c2ccccn2)s1` (racemic), for which the Activity was 94.6%.

As for `CN1c2ccccc2C(=O)N(c2ccccc2)C1c1ccc(-c2ccoc2)s1` (racemic), the Activity is 74.7%.

On to `CN1c2ccccc2C(=O)N(c2ccccc2)C1c1ccc(-c2cccs2)s1` (racemic), for which the Activity is given as 84%.

Turning to `CN1c2ccccc2C(=O)N(c2ccccc2)C1c1ccc(-n2cccc2)s1` (racemic), the Activity came to 12%.

As to `Cc1ccc(C2N(C)c3ccccc3C(=O)N2c2ccccc2Cl)s1` (racemic), the Activity is on record as 230%.

In turn, `Cc1ccc(C2N(C)c3ccccc3C(=O)N2c2ccccc2Br)s1` (racemic) registered an Activity of 10.5%.

Compound `Cc1ccc(C2N(C)c3ccccc3C(=O)N2c2ccccc2C#N)s1` (racemic) gave an Activity of 54%.

On to `Cc1ccc(C2N(C)c3ccccc3C(=O)N2c2ccccc2Oc2ccccc2)s1` (racemic), for which the Activity came to 23%.

For the compound `Cc1ccc(C2N(C)c3ccccc3C(=O)N2c2ccccc2Sc2ccccc2)s1` (racemic), the Activity was 9.6%.

`Cc1ccc(C2N(C)c3ccccc3C(=O)N2c2ccccc2-c2ccccc2)s1` (racemic) had an Activity of 99%.

Turning to `Cc1ccc(C2N(C)c3ccccc3C(=O)N2c2ccccc2Cc2ccccc2)s1` (racemic), the Activity came to 1%.

Turning to `Cc1ccc(C2N(C)c3ccccc3C(=O)N2c2ccccc2C(F)(F)F)s1` (racemic), the Activity is 3%.

Compound `Cc1ccc(C2N(C)c3ccccc3C(=O)N2c2ccccc2OC(F)(F)F)s1` (racemic) showed an Activity of 4.4%.

Take `Cc1ccc(C2N(C)c3ccccc3C(=O)N2c2ccccc2OCc2ccccc2)s1` (racemic): the Activity amounted to 9.8%.

`Cc1ccsc1C1Nc2ccccc2C(=O)N1c1ccccc1` (racemic) showed an Activity of 0%.

In turn, `Cc1csc(C2Nc3ccccc3C(=O)N2c2ccccc2)c1` (racemic) returned an Activity of 1%.

Take `CCCc1ccc(C2Nc3ccccc3C(=O)N2c2ccccc2)s1` (racemic): the Activity was determined as 54%.

`Cc1ccc(C2Nc3ccccc3C(=O)N2c2ccncc2)s1` (racemic): the Activity amounted to 0%.

In the case of `Cc1ccc(C2Nc3ccccc3C(=O)N2c2ccncn2)s1` (racemic), the Activity is recorded as 0.5%.

As to `Cc1ccc(C2Nc3ccccc3C(=O)N2c2ccc(Br)cc2)s1` (racemic), the Activity came out at 0%.

In the case of `Cc1ccc(C2Nc3ccccc3C(=O)N2c2cccc(Br)c2)s1` (racemic), the Activity was found to be 0%.

Consider `Cc1ccc(C2Nc3ccccc3C(=O)N2c2ccccc2Br)s1` (racemic), for which the Activity was 0%.

Consider `Cc1ccc(C2Nc3ccccc3C(=O)N2c2ccc(Cl)cc2)s1` (racemic), for which the Activity is given as 0%.

As to `Cc1ccc(C2Nc3ccccc3C(=O)N2c2cccc(Cl)c2)s1` (racemic), the Activity came out at 54%.

Consider `Cc1ccc(C2Nc3ccccc3C(=O)N2c2ccccc2Cl)s1` (racemic), for which the Activity is listed as 211%.

Compound `CSc1ccccc1N1C(=O)c2ccccc2NC1c1ccc(C)s1` (racemic) showed an Activity of 75%.

With `Cc1ccc(C2Nc3c(C)cccc3C(=O)N2c2ccccc2)s1` (racemic), the Activity worked out at 4%.

For the compound `Cc1ccc2c(c1)C(=O)N(c1ccccc1)C(c1ccc(C)s1)N2` (racemic), the Activity is given as 11.2%.

Compound `COc1ccc2c(c1)C(=O)N(c1ccccc1)C(c1ccc(C)s1)N2` (racemic) came in with an Activity of 2%.

Regarding `Cc1ccc(C2N(C)c3ccccc3C(=O)N2c2ccccc2)s1` (single isomer, unassigned; form 1), the outcome was inactive.

In the case of `Cc1ccc(C2N(C)c3ccccc3C(=O)N2c2ccccc2)s1` (single isomer, unassigned; form 2), the result was Active.
